Assay results from paper PMC11327210, “A first-in-human phase I trial of daily oral zelenirstat, a N-myristoyltransferase inhibitor, in patients with advanced solid tumors and relapsed/refractory B-cell lymphomas” (Investigational New Drugs, 2024).

Key:
[1] = test system: advanced solid tumors and relapsed/refractory (R/R) B-cell lymphomas; assay: Anticancer activity in phase I patients (RECIST 1.1 / Lugano, Kaplan-Meier); assay type: in vivo, human; details: for No. of patients with best response SD: evaluable patients n = 24
Procedure: Tumor response assessments using CT imaging were performed every two cycles. RECIST 1.1 [11] or the Lugano Response Criteria for Lymphoma was used to determine tumor response and disease progression. For B-cell NHL patients with PET-CT at baseline, PET-CT was repeated after the sixth cycle to confirm complete response or disease progression. Patient archival specimens and blood samples were submitted for exploratory molecular analyses. Descriptive statistics were used for demographic, safety, and efficacy data. Categorical data were summarized using frequency counts and percentages. Time-to-event variables were analyzed by Kaplan-Meier methods. Weighted trajectory analysis for health outcomes used the Chauhan methodology.

clinical = details: human, in vivo; for AUC(0-t): AUC0 − 24 (h*ng/mL) (mean, SD); for Cmax: Cmax (ng/ml) (mean, SD)
Procedure: Peripheral blood samples were collected over six time points in the first 8 h of Cycle 1, Day 1 (C1D1), and again on C1D15. Pre-treatment Day 1 levels were obtained with every subsequent cycle.

rats = details: rat, in vivo; cited from earlier work
[2] = MTD cohort 210 mg daily (n = 7) vs lower dose cohorts (n = 17)

For `Cc1c(NS(=O)(=O)c2c(Cl)cc(-c3ccnc(N4CCNCC4)c3)cc2Cl)c(CC(C)C)nn1C` [zelenirstat], the “Overall Survival (Kaplan-Meier)” value [1, 2] was “statistically significantly longer overall survival”, the “Progression-Free Survival (Kaplan-Meier)” value [1, 2] was “statistically significantly longer PFS” and the objective responses ([1]; all dose cohorts) was “No objective responses”. For the same compound, the “No. of patients with best response SD” value ([1]; dose level 2: 40 mg, pancreatic adenocarcinoma) was 1, the “No. of patients with best response SD” value ([1]; dose level 5: 140 mg, CRC) was 1 and the “No. of patients with best response SD” value ([1]; dose level 6: 210 mg, CRC (2), ovarian (2), appendiceal carcinoma) was 5. For the same compound, the “No. of patients with best response SD” value ([1]; dose level 7: 280 mg, after DLT modified to 210 mg daily, bladder) was 1, the “Stable disease as best response, patients” value ([1]; eight of 29 patients, all dose cohorts) was 28% and the “reduction in serum carcinoembryonic antigen (CEA) level” value ([1]; one patient, metastatic colon adenocarcinoma, 210 mg) was 48%. The duration on zelenirstat ([1]; one patient, metastatic colon adenocarcinoma, 210 mg, SD, continuing) was at least 420 days, the “reduction in sum of longest dimensions of the target lesions” value ([1]; one patient, metastatic colon adenocarcinoma, 210 mg, ongoing) was 13% and the “reduction in cancer antigen 125 (CA125)” value ([1]; one patient, refractory ovarian cancer, 210 mg) was 20%. For the same compound, the half-life (clinical; half-life values across the dose cohorts) was 7.67 to 12 h, the Tmax (clinical; maximum Tmax value in patients taking PPI) was about 8 h and the half-life (clinical; mean terminal half-life across the dose cohorts) was 6.7 to 9.5 h. For the same compound, the Tmax (clinical; median Tmax range in patients taking proton pump inhibitors (PPI)) was 1 to 6 h, the AUC(0-t) (clinical; po, 20 mg) was 1580 ng·h/mL and the Cmax (clinical; po, 20 mg) was 359 ng/mL. The Tmax (clinical; po, 20 mg, Tmax (h) (median, range)) was 2 h, the half-life (clinical; po, 20 mg, t1/2 (h) (mean, SD)) was 6.7 h and the AUC(0-t) (clinical; po, 40 mg) was 4820 ng·h/mL. It also gave a Cmax (clinical; po, 40 mg) of 848 ng/mL, a half-life (clinical; po, 40 mg, t1/2 (h) (mean, SD)) of 9.2 h and an AUC(0-t) (clinical; po, 70 mg) of 5650 ng·h/mL. It also gave a Cmax (clinical; po, 70 mg) of 665 ng/mL, a Tmax (clinical; po, 70 mg, Tmax (h) (median, range)) of 3.9 h and a half-life (clinical; po, 70 mg, t1/2 (h) (mean, SD)) of 9.5 h. It also gave an AUC(0-t) (clinical; po, 100 mg) of 24700 ng·h/mL, a Cmax (clinical; po, 100 mg) of 2300 ng/mL and a Tmax (clinical; po, 100 mg, Tmax (h) (median, range)) of 4 h. For the same compound, the half-life (clinical; po, 100 mg, t1/2 (h) (mean, SD)) was 12 h, the AUC(0-t) (clinical; po, 140 mg) was 11900 ng·h/mL and the Cmax (clinical; po, 140 mg) was 1770 ng/mL. The Tmax (clinical; po, 140 mg, Tmax (h) (median, range)) was 1 h, the half-life (clinical; po, 140 mg, t1/2 (h) (mean, SD)) was 7.2 h and the AUC(0-t) (clinical; po, 210 mg) was 14700 ng·h/mL. The Cmax (clinical; po, 210 mg) was 1770 ng/mL, the Tmax (clinical; po, 210 mg, Tmax (h) (median, range)) was 3 h and the half-life (clinical; po, 210 mg, t1/2 (h) (mean, SD)) was 7.8 h. The Tmax (clinical; po, median Tmax values across the dose cohorts) was 1 to 4 h, the half-life (clinical; po, terminal half-lives, average) was 10 h and the Tmax (clinical; po, time of peak plasma concentrations) was 2 h. For the same compound, the “toxicities in formal toxicologic evaluation” value (rats) was “acute gastrointestinal and hematologic toxicities”.
